Measurements reported in US10377783B2, “Methods and compounds for enhancing contrast in magnetic resonance imaging (MRI)” (priority 2015, dated 2019).
Like-named read-outs stand apart in the source and are kept apart here.

What was measured:
[1] = cited from earlier work; for Clearance (route) / Clearance (time; half-life): in vivo; for uptake by hepatocytes: during excretion
[2] = target: serum albumin (Homo sapiens, UniProt P02768); settings: cited from earlier work
[3] = system: primary rat renal proximal tubule epithelial cells (RPTECs); experiment: In vitro toxicity, MTT assay; format: cell-based; settings: for IC50: rat RPTECs, MTT, read-out: Inhibitory concentration IC50; for cytotoxicity: 10 h time point, compared with 4 h
Protocol: Gadodiamide (Selleckchem, Lot #02) was used as the reference compound. It is one of the 8 Gd(III)-based MRI agents approved for use in Canada (trade name: Omniscan™).
The test articles and reference compound were weighed and dissolved in the incubation medium to give the highest test concentration of 30 mM. The solution was filter sterilized and diluted to the remaining test concentrations of 10 mM, 3.3 mM, 1.1 mM, 0.36 mM, 0.12 mM and 0.04 mM.
Cryopreserved primary rat renal proximal tubule epithelial cells (RPTECs) (ScienCell Research Laboratories, Carlsbad, Calif.) were used for the study. The rat RPTECs were thawed completely at 37° C., and transferred to epithelial cell medium (ScienCell Research Laboratories, Carlsbad, Calif.) followed by plating in poly-L-lysine coated 96-well plates. The RPTECs were allowed to recover and grow in a cell culture incubator (37° C., humidified atmosphere of 5% carbon dioxide and 95% air) for 3 additional days with a medium change every alternate day.
Following 3 days of plating, the RPTECs were washed once with serum free epithelial cell medium (ScienCell Research Laboratories, Carlsbad, Calif.) followed by treatment with the test, reference or control articles for 2, 4, 10 or 24 h. All treatments were performed in triplicate.
Cellular viability and metabolic activity were assessed by using the 3-(4,5-dimethylthiazol-2-yl)-2,5-diphenyl tetrazolium bromide (MTT) uptake assay. A 10× stock of the MTT dye was prepared in phosphate buffered saline (PBS). An aliquot of dye was added 2 hrs before the intended time point to achieve a final 1× concentration, after which incubation (37° C., humidified atmosphere of 5% carbon dioxide and 95% air) continued until the desired time point. For the 2 hr time point, the aliquot of dye was added immediately after the test articles. Following incubation, all media was aspirated from the wells and the plates were allowed to dry. The resulting formazan crystals were dissolved in DMSO using an orbital shaker, and the absorbance at 570 nm was measured using a Victor ^3V multilabel plate reader (reference wavelength=650 nm).
The inhibitory concentration (IC50, the concentration resulting in 50% toxicity) was determined by plotting log concentration vs. relative viability, followed by non-linear regression of the curve using Graph Pad Prism 5.0.
An in vitro toxicity study was performed in order to evaluate the cytotoxic potential of several of the agents in primary rat renal proximal tubule epithelial cells (RPTECs), prior to performing in vivo studies. The Mn^II and Gd^III complexes of L1, L2 and L6 (complexes 1, 2, 5, and 7-9) were evaluated at seven concentrations (30 mM, 10 mM, 3.3 mM, 1.1 mM, 0.36 mM, 0.12 mM and 0.04 mM) after 2, 4, 10 and 24 hours of treatment in rat RPTECs. The MTT assay was used as an indicator of viability. The nephrotoxic potential of the test articles was compared to the toxicity observed in the presence of the approved agent Gadodiamide. The results are summarized in Table 4, where the inhibitory concentration (IC50, the concentration resulting in 50% toxicity) was determined by plotting log concentration vs. relative viability.

[4] = Relaxivity measurements (T1 and T2 relaxation times, Bruker minispec mq60/mq20); format: physicochemical; settings: aqueous solution, 37° C.
Protocol: T1 and T2 relaxation times were measured at the STTARR Innovation Centre in Toronto, Canada using a Bruker minispec mq60, and at the Bruker Showroom in Milton, Canada using a Bruker minispec mq20. Measurements were carried out on a series of 6 aqueous dilutions between 0-5 mM.
The T1 and T2 relaxation times of the 8 soluble, pure complexes were measured in aqueous solution at 37° C., at both 20 and 60 MHz.

Chain of serum albumin (P02768 25-609): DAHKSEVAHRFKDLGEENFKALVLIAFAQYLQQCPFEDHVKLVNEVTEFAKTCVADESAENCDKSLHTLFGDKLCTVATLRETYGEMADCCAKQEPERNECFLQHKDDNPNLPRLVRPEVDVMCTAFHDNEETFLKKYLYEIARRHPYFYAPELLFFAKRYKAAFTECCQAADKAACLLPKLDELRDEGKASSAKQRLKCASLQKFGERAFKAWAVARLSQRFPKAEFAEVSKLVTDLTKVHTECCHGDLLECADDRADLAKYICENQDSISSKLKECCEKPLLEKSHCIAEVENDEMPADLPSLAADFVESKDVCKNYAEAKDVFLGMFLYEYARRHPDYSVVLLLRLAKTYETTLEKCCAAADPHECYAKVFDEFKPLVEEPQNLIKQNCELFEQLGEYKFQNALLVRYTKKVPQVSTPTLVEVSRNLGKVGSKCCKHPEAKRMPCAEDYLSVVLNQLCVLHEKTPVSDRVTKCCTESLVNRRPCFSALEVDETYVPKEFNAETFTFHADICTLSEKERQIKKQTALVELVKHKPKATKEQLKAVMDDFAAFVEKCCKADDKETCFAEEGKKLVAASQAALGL

O=C([O-])CN1CCN(CC(=O)[O-])CCN([C@H](CO)[C@H](O)CO)CCN(CC(=O)[O-])CC1.[Gd+3] (racemic) [Gadavist, gadobutrol]
Clearance (route) [1]: renal

O=C([O-])CN(CCN(CC(=O)[O-])C[C@H](COP(=O)([O-])OC1CCC(c2ccccc2)(c2ccccc2)CC1)N(CC(=O)[O-])CC(=O)[O-])CC(=O)[O-].[Gd+3].[H+].[H+].[H+] [Ablavar or Vasovist, gadofosveset]
binding to serum albumin [2]: selectively binds to the blood protein serum albumin
Clearance (route) [1]: renal/hepatic
Clearance (time; half-life) [1]: 18.5 h

CC1=Nc2ccccc2OCCOCCOc2ccccc2N=C(C)c2cccc1n2.O.O.[Cl-].[Cl-].[Mn+2] [Compound 5, [MnL6Cl2].2H2O]
IC50 ([3]; 2 hr treatment): 1250 µM
IC50 ([3]; 4 hr treatment): 670 µM
IC50 ([3]; 10 hr treatment): 1390 µM
cytotoxicity [3]: exhibited a slight reduction in toxicity
IC50 ([3]; 24 hr treatment): 210 µM
r1 relaxivity ([4]; 20 MHz): 7.22 s⁻¹ mM⁻¹
r1 relaxivity ([4]; 60 MHz): 2.97 s⁻¹ mM⁻¹

CC1=NCCNCCNCCN=C(C)c2cccc1n2.O.O.O.[Cl-].[Cl-].[Cl-].[Gd+3] [Compound 7, [GdL1Cl3].3H2O]
IC50 ([3]; 2 hr treatment): 8150 µM
IC50 ([3]; 4 hr treatment): 3370 µM
IC50 ([3]; 10 hr treatment): 8530 µM
cytotoxicity [3]: exhibited a slight reduction in toxicity
IC50 ([3]; 24 hr treatment): 920 µM
r1 relaxivity ([4]; 20 MHz): 6.43 s⁻¹ mM⁻¹
r1 relaxivity ([4]; 60 MHz): 5.58 s⁻¹ mM⁻¹

CNC[C@H](O)[C@@H](O)[C@H](O)[C@H](O)CO.O=C([O-])CN1CCN(CC(=O)[O-])CCN(CC(=O)O)CCN(CC(=O)[O-])CC1.[Gd+3] [Dotarem, gadoterate]
Clearance (route) [1]: renal

CCOc1ccc(CC(CN(CCN(CC(=O)[O-])CC(=O)[O-])CC(=O)[O-])N(CC(=O)[O-])CC(=O)[O-])cc1.[Gd+3].[Na+].[Na+] (stereo not shown) [Eovist or Primovist, gadoxetate]
uptake by hepatocytes [1]: taken up by hepatocytes during excretion
Clearance (route) [1]: renal/hepatic

CNC(=O)CN(CCN(CCN(CC(=O)[O-])CC(=O)NC)CC(=O)[O-])CC(=O)[O-].[Gd+3] [Gadodiamide, gadodiamide, reference compound]
nephrotoxicity ([3]; 2 and 4 h of treatment, 0.04-30 mM): did not show significant nephrotoxicity
IC50 ([3]; 10 hr treatment): > 30000 µM
cytotoxicity [3]: showed more toxicity than earlier time points
nephrotoxic effects ([3]; 24 h of treatment): exhibiting the least nephrotoxic effects
IC50 ([3]; 24 hr treatment): 31000 µM
Clearance (route) [1]: renal
Clearance (time; half-life) [1]: 1.30 h

O=C([O-])CN(CCN(CC(=O)[O-])CC(=O)O)CCN(CC(=O)[O-])CC(=O)O.[Gd+3] [Magnevist, gadopentetate]
Clearance (route) [1]: renal
Clearance (time; half-life) [1]: 1.60 h

CNC[C@H](O)[C@@H](O)[C@H](O)[C@H](O)CO.CNC[C@H](O)[C@@H](O)[C@H](O)[C@H](O)CO.O=C([O-])CN(CCN(CC(=O)[O-])CC(=O)O)CCN(CC(=O)O)C(COCc1ccccc1)C(=O)[O-].[Gd+3] (stereo not shown) [Multihance, gadobenate]
uptake by hepatocytes [1]: taken up by hepatocytes during excretion
Clearance (route) [1]: renal/hepatic
Clearance (time; half-life) [1]: 1.2 to 2 h

COCCNC(=O)CN(CCN(CCN(CC(=O)[O-])CC(=O)NCCOC)CC(=O)[O-])CC(=O)[O-].[Gd+3] [OptiMARK, gadoversetamide]
Clearance (route) [1]: renal
Clearance (time; half-life) [1]: 1.73 h

CC(O)CN1CCN(CC(=O)[O-])CCN(CC(=O)[O-])CCN(CC(=O)[O-])CC1.[Gd+3] (stereo not shown) [Prohance, gadoteridol]
Clearance (route) [1]: renal
Clearance (time; half-life) [1]: 1.57 h
